Reference: patent US6653529B2, “Use of the maize X112 mutant ahas 2 gene and imidazolinone herbicides for selection of transgenic monocots, maize, rice and wheat plants resistant to the imidazolinone herbicides” (BASF Aktiengesellschaft, priority 2000, dated 2003)

Assays:
[1] = system: transgenic rice containing 35S/als transgene; details: cited from earlier work
[2] = system: AHAS (acetohydroxyacid synthase) in extracts of Nortai, Line 26 and Line 29; assay: In vitro AHAS activity assay; format: biochemical, rice; details: Nt, Line 26, Line 29; FIG. 2
Protocol: Previously published procedures were used for the extraction and in vitro assay for AHAS activity (Singh et al. 1988). Lower portions of the shoots were used as the source of plant tissue for the assay. The desalted crude extracts were used for the in vitro enzyme assays. Acetolactate produced by the enzyme was converted to acetoin, which was measured by the Westerfield assay system.
In vitro AHAS assays were performed to understand the basis of herbicide tolerance in the transgenic plants. Previously published procedure was used for the extraction and in vitro assay for AHAS activity (Singh et al. 1988). The lower portions of the shoots were used as the source of plant tissue for the assay. The desalted crude extracts were used for the in vitro enzyme assays. Acetolactate produced by the enzyme was converted to acetoin, which was measured by the Westerfield assay system (Westerfield 1945). The specific activity of AHAS was about 30% higher in Line 26 (67 nmoles/mg protein/h) and Line 29 (64 nmoles/mg protein/h) compared to the activity in Nortai (Nt) (50 nmoles/mg protein/h).

## COc1nc(C)nc(NC(=O)NS(=O)(=O)c2ccccc2Cl)n1 [chlorsulfuron]
[1]; Arabidopsis ALS promoter replaced with CaMV35S promoter (Li et al. 1992)
  differences in in vitro resistance: 40 fold
[1]; transgenic rice containing 35S/als transgene (Li et al. 1992)
  increase in in vitro resistance: 200 fold
[2]
  inhibition of AHAS activity from all three lines: inhibited in a similar manner
